In ChEMBL document CHEMBL3774338 (J Med Chem, 2016):

Test: Chemical stability assessed as oxidation mediated drug degradation at room temperature exposed to air by mass spectrometric analysis
Assay type: physicochemical

Structure (SMILES): O=c1[nH]cnc2c(-n3cc(CCN4CCC(c5cc(F)cc(F)c5)CC4)cn3)nccc12
- Stability: Unstable
